In patent US6479435B1, “Diaryl ethers and processes for their preparation and herbicidal and desiccant compositions containing them” (ISK Americas Incorporated, priority 1997, dated 2002):

Legend:
Assay type in all cases: in vivo
Grass Weeds = test: Pre-emergent application in combination with other herbicides, percent control of grass weeds; settings: 62.5 g ai/ha
Procedure: (§1) All plants were grown in 10 cm square plastic pots which were filled with a sandy loam soil mix. For preemerge tests, seeds were planted one day prior to application of the test compounds. Immediately after application, test units of the pre-emerge applications were watered at the soil surface to incorporate the test materials. Subsequently, these test units were bottom-watered.
(§2) All test compounds were dissolved in acetone and applied to the test units in a volume of 187 l/ha. […] Plants were arranged on a shelf so that the top of the canopy (post-emerge) or top of the soil surface (pre-emerge) was 40-45 cm below the nozzle. Pressurized air was used to force the test solution through the nozzle as it was mechanically advanced (via electrically driven chain drive) over the top of all test plants/pots. This application simulates a typical commercial field herbicide application.
(§3) At 14 days after application of the test materials, phytotoxicity ratings were recorded. A rating scale of 0-100 was used as previously described in Research Methods in Weed Science, 2nd edition, B. Truelove, Ed., Southern Weed Science Society, Auburn University, Auburn, Ala., 1977. Briefly, “0” corresponds to no damage and “100” corresponds to complete death of all plants in the test unit. This scale was used both to determine efficacy against weed species and damage to crop species. Herbicide activity data for various compounds of this invention, which are shown by compound number in Tables 1-9, are shown in Tables 13 and 14.
(§4) (Note: Weed species abbreviations are from the Composite List of Weeds published by the Weed Science Society of America, 1989.)
(§5) The following examples illustrate the utility of combinations of compounds of this invention and existing herbicides. The methods used are identical to those for the application of single compounds except the commercial formulations of existing herbicides were added to the spray mixture in the appropriate amounts before spraying.
Combination Example 1. Pre-emergent Application of Compound 9-1 with Metolachlor
(§6) Combination Example 2. Pre-emergent Application of Compound 9-1 with Dimethenamid

Broadleaf Weeds [1] = test: Post-emergent application in combination with other herbicides, percent control of broadleaf weeds; settings: 31.25 g ai/ha
Procedure: All test compounds were dissolved in acetone and applied to the test units in a volume of 187 l/ha. Test materials were applied at rates ranging from 125 g ai/ha to 1000 g ai/ha using a track sprayer equipped with a TJ8001E even flow flat fan spray nozzle. Plants were arranged on a shelf so that the top of the canopy (post-emerge) or top of the soil surface (pre-emerge) was 40-45 cm below the nozzle. Pressurized air was used to force the test solution through the nozzle as it was mechanically advanced (via electrically driven chain drive) over the top of all test plants/pots. This application simulates a typical commercial field herbicide application. […] For post-emerge tests, seeds were planted 8-21 days prior to the test to allow emergence and good foliage development prior to application of the test substances. At the time of the post-emerge application, plants of all species were usually at the 2-3 leaf stage of development. Post-emerge test units were always bottom-watered. At 14 days after application of the test materials, phytotoxicity ratings were recorded. A rating scale of 0-100 was used as previously described in Research Methods in Weed Science, 2nd edition, B. Truelove, Ed., Southern Weed Science Society, Auburn University, Auburn, Ala., 1977. Briefly, “0” corresponds to no damage and “100” corresponds to complete death of all plants in the test unit. This scale was used both to determine efficacy against weed species and damage to crop species. Herbicide activity data for various compounds of this invention, which are shown by compound number in Tables 1-9, are shown in Tables 13 and 14. […] (Note: Weed species abbreviations are from the Composite List of Weeds published by the Weed Science Society of America, 1989.) The following examples illustrate the utility of combinations of compounds of this invention and existing herbicides. The methods used are identical to those for the application of single compounds except the commercial formulations of existing herbicides were added to the spray mixture in the appropriate amounts before spraying. Combination Example 3. Post-emergent Application of Compound 9-1 with Nicosulfuron Combination Example 4. Postemergent Application of Compound 9-1 with Pyridate

Broadleaf Weeds [2] = test: Pre-emergent application in combination with other herbicides, percent control of broadleaf weeds; settings: 62.5 g ai/ha
Procedure: as §1, §2, §3, §4
as §5, with “spraying. […]” for “spraying.”
as §6

## Nn1c(C(F)(F)F)cc(=O)n(-c2cc(Oc3ncccc3[N+](=O)[O-])c(Cl)cc2F)c1=O [Compound 9-1, 1-amino-3-[4-chloro-2-fluoro-5-(3-nitro-2-pyridyloxy)phenyl]-6-trifluoromethyl-1,2,3,4-tetrahydropyrimidine-2,4-dione]
Grass Weeds
  Percent Control of Grass Weeds DIGSA: 20%
  Percent Control of Grass Weeds ECHCG: 0%
  Percent Control of Grass Weeds SETVI: 90%
  Percent Control of Grass Weeds SORHA: 0%
Grass Weeds; Combination Example 2
  Percent Control of Grass Weeds DIGSA: 20%
  Percent Control of Grass Weeds ECHCG: 0%
  Percent Control of Grass Weeds SETVI: 90%
  Percent Control of Grass Weeds SORHA: 0%
Broadleaf Weeds [1]
  Percent Control of Broadleaf Weeds ABUTH: 60%
  Percent Control of Broadleaf Weeds AMARE: 60%
  Percent Control of Broadleaf Weeds AMBEL: 40%
  Percent Control of Broadleaf Weeds CASOB: 0%
  Percent Control of Broadleaf Weeds CHEAL: 90%
  Percent Control of Broadleaf Weeds IPOHE: 80%
Broadleaf Weeds [1]; Combination Example 4
  Percent Control of Broadleaf Weeds ABUTH: 60%
  Percent Control of Broadleaf Weeds AMARE: 60%
  Percent Control of Broadleaf Weeds AMBEL: 40%
  Percent Control of Broadleaf Weeds CASOB: 0%
  Percent Control of Broadleaf Weeds CHEAL: 90%
  Percent Control of Broadleaf Weeds IPOHE: 80%
Broadleaf Weeds [2]
  Percent Control of Broadleaf Weeds ABUTH: 95%
  Percent Control of Broadleaf Weeds AMARE: 100%
  Percent Control of Broadleaf Weeds AMBEL: 40%
  Percent Control of Broadleaf Weeds CASOB: 10%
  Percent Control of Broadleaf Weeds CHEAL: 100%
  Percent Control of Broadleaf Weeds IPOHE: 50%
Broadleaf Weeds [2]; Combination Example 2
  Percent Control of Broadleaf Weeds ABUTH: 95%
  Percent Control of Broadleaf Weeds AMARE: 100%
  Percent Control of Broadleaf Weeds AMBEL: 40%
  Percent Control of Broadleaf Weeds CASOB: 10%
  Percent Control of Broadleaf Weeds CHEAL: 100%
  Percent Control of Broadleaf Weeds IPOHE: 50%
